Tests used:
Assay in all cases: karenitecin treatment of PDX model
Format in all cases: in vivo
Set-up in all cases: key to Response: responder: responded to karenitecin treatment (AUC<0.5 and TGI>0.8); non_responder: did not respond to karenitecin treatment (AUC>0.5 and TGI<0.6)
Details in all cases: karenitecin treatment for two weeks
PDX LU6429 = tested on: PDX LU6429
Description: (§1) A cohort of 48 PDX models in 8 cancers were used in this study. Those models were subject to karenitecin treatment for two weeks. Both tumor growth inhibition (TGI) and median AUC (area under curve) ratio, a newly developed metric to evaluate drug efficacy, were calculated (Table 1). Those models can be divided into two categories according to TGI and median AUC ratio.

PDX LU1429 = tested on: PDX LU1429
Description: as §1

PDX CR0126 = tested on: PDX CR0126
Description: as §1

PDX LU1901 = tested on: PDX LU1901
Description: as §1

PDX ES0176 = tested on: PDX ES0176
Description: as §1

PDX GA3109 = tested on: PDX GA3109
Description: as §1

PDX OV0273 = tested on: PDX OV0273
Description: as §1

PDX GA0087 = tested on: PDX GA0087
Description: as §1

PDX CR3310 = tested on: PDX CR3310
Description: as §1

PDX CR2520 = tested on: PDX CR2520
Description: as §1

PDX ES0110 = tested on: PDX ES0110
Description: as §1

PDX CR2528 = tested on: PDX CR2528
Description: as §1

PDX GA3055 = tested on: PDX GA3055
Description: as §1

PDX LU1215 = tested on: PDX LU1215
Description: as §1

PDX LU1542 = tested on: PDX LU1542
Description: as §1

PDX ES2267 = tested on: PDX ES2267
Description: as §1

PDX LU1235 = tested on: PDX LU1235
Description: as §1

PDX OV0276 = tested on: PDX OV0276
Description: as §1

CC[C@@]1(O)C(=O)OCc2c1cc1n(c2=O)Cc2c-1nc1ccccc1c2CC[Si](C)(C)C [karenitecin]
Median AUC ratio (PDX LU6429): 1.106 | Response (PDX LU6429): non_responder | TGI (PDX LU6429): 0.241 | Median AUC ratio (PDX LU1429): 0.076 | Response (PDX LU1429): responder | TGI (PDX LU1429): 1.054 | Median AUC ratio (PDX CR0126): 1.399 | Response (PDX CR0126): non_responder | TGI (PDX CR0126): −0.308 | Median AUC ratio (PDX LU1901): −0.295 | Response (PDX LU1901): responder | TGI (PDX LU1901): 1.077 | Median AUC ratio (PDX ES0176): 1.242 | Response (PDX ES0176): non_responder | TGI (PDX ES0176): −0.177 | Median AUC ratio (PDX GA3109): 0.137 | Response (PDX GA3109): responder | TGI (PDX GA3109): 1.046 | Median AUC ratio (PDX OV0273): −0.092 | Response (PDX OV0273): responder | TGI (PDX OV0273): 1.052 | Median AUC ratio (PDX GA0087): −1.097 | Response (PDX GA0087): responder | TGI (PDX GA0087): 1.316 | Median AUC ratio (PDX CR3310): −0.926 | Response (PDX CR3310): responder | TGI (PDX CR3310): 1.727 | Median AUC ratio (PDX CR2520): 0.914 | Response (PDX CR2520): non_responder | TGI (PDX CR2520): 0.288 | Median AUC ratio (PDX ES0110): 0.344 | Response (PDX ES0110): responder | TGI (PDX ES0110): 1.010 | Median AUC ratio (PDX CR2528): 1.014 | Response (PDX CR2528): non_responder | TGI (PDX CR2528): 0.519 | Median AUC ratio (PDX GA3055): −0.072 | Response (PDX GA3055): responder | TGI (PDX GA3055): 1.215 | Median AUC ratio (PDX LU1215): 0.232 | Response (PDX LU1215): responder | TGI (PDX LU1215): 1.006 | Median AUC ratio (PDX LU1542): −3.610 | Response (PDX LU1542): responder | TGI (PDX LU1542): 1.195 | Median AUC ratio (PDX ES2267): −0.288 | Response (PDX ES2267): responder | TGI (PDX ES2267): 1.240 | Median AUC ratio (PDX LU1235): −0.018 | Response (PDX LU1235): responder | TGI (PDX LU1235): 0.932 | Median AUC ratio (PDX OV0276): 0.314 | Response (PDX OV0276): responder | TGI (PDX OV0276): 1.103

Source: patent US11339447B2, “System and method for determining Kareniticin sensitivity on cancer” (CROWN BIOSCIENCE, INC. (TAICANG), priority 2017, dated 2022)
